Molecular target: T1, AHR (Homo sapiens, UniProt P35869)
T1 sequence (P35869 11-848): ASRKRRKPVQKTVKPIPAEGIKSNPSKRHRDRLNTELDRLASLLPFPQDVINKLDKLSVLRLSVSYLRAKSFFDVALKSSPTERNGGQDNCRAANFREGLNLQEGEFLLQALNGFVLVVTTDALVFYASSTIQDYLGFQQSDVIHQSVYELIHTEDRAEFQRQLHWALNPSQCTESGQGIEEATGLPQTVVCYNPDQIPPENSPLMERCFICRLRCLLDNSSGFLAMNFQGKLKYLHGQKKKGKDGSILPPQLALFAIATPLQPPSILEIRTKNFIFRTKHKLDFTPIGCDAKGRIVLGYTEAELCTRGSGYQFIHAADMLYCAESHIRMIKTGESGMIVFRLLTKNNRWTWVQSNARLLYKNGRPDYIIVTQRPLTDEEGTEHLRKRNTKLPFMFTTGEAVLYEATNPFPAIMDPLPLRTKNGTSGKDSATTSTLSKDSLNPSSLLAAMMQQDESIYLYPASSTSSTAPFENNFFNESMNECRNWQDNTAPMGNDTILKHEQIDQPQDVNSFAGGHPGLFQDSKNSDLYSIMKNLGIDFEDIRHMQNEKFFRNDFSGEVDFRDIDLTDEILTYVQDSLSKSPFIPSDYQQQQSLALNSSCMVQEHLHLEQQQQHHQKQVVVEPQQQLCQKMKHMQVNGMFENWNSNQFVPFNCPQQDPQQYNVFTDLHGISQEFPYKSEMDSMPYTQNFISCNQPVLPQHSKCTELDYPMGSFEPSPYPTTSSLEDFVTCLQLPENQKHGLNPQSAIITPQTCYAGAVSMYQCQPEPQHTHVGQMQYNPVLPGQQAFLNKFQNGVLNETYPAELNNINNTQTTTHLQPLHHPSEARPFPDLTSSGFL
Experiment: In vitro assay 1: antagonism in human cell line (transactivation assay, kynurenic acid prestimulated)
Details: Assay 1: AHR-luc Hum Antagonism IC50 [M], 150 μM kynurenic acid, 20 hours, firefly luciferase

| Compound | IC50 [M] |
| --- | --- |
| CC(NC(=O)c1cc(-c2ccc(C(F)(F)F)cc2)nn(-c2cccc(F)c2)c1=O)C(O)C(F)(F)F (single isomer, unassigned) [Example 268, Isomer no. 1 of 2-(3-fluorophenyl)-3-oxo-N-(4,4,4-trifluoro-3-hydroxybutan-2-yl)-6-[4-(trifluoromethyl)phenyl]-2,3-dihydropyridazine-4-carboxamide] | > 2e-05 |
| O=C(NC(CO)C1CCCO1)c1cc(-c2ccc(Cl)cc2)nn(-c2cccc(F)c2)c1=O (single isomer, unassigned) [Example 319, 1,4-anhydro-5-({[6-(4-chlorophenyl)-2-(3-fluorophenyl)-3-oxo-2,3-dihydropyridazin-4-yl]carbonyl}amino)-2,3,5-trideoxyhexitol] | 5.02e-08 |
| O=C(NC(CO)C1CCCO1)c1cc(-c2ccc(C(F)(F)F)cc2)nn(-c2cccc(F)c2)c1=O (single isomer, unassigned) [Example 354, 1,4-anhydro-2,3,5-trideoxy-5-[({2-(3-fluorophenyl)-3-oxo-6-[4-(trifluoromethyl)phenyl]-2,3-dihydropyridazin-4-yl}carbonyl)amino]hexitol] | 1.41e-08 |
| O=C(NC(CO)C1CCCO1)c1cc(-c2ccc(C(F)(F)F)cc2)nn(-c2cccc(F)c2)c1=O (single isomer, unassigned) [Example 355, 1,4-anhydro-2,3,5-trideoxy-5-[({2-(3-fluorophenyl)-3-oxo-6-[4-(trifluoromethyl)phenyl]-2,3-dihydropyridazin-4-yl}carbonyl)amino]hexitol] | 1.2e-07 |
| COCCC(CO)NC(=O)c1cc(-c2ccc(C(F)(F)F)cc2)nn(-c2cccc(F)c2)c1=O (single isomer, unassigned; (+)) [Example 332, (+)-2-(3-fluorophenyl)-N-(1-hydroxy-4-methoxybutan-2-yl)-3-oxo-6-[4-(trifluoromethyl)phenyl]-2,3-dihydropyridazine-4-carboxamide] | 6.06e-08 |
| Cc1ccc(-c2cc(C(=O)N[C@H](C)CO)c(=O)n(-c3cccc(F)c3)n2)cc1 [Example 9, 2-(3-Fluorophenyl)-N-[(2R)-1-hydroxypropan-2-yl]-6-(4-methylphenyl)-3-oxo-2,3-dihydropyridazine-4-carboxamide] | 1.81e-07 |
| Cc1ccc(-c2cc(C(=O)NCCO)c(=O)n(-c3cccc(F)c3)n2)cc1 [Example 19, 2-(3-Fluorophenyl)-N-(2-hydroxyethyl)-6-(4-methylphenyl)-3-oxo-2,3-dihydropyridazine-4-carboxamide] | 3.91e-07 |
| CC(C)[C@@H](CO)NC(=O)c1cc(-c2ccc(Cl)cc2)nn(-c2cccc(Cl)c2)c1=O [Example 59, 2-(3-Chlorophenyl)-6-(4-chlorophenyl)-N-[(2S)-1-hydroxy-3-methylbutan-2-yl]-3-oxo-2,3-dihydropyridazine-4-carboxamide] | 4.96e-08 |
| CC(C)C[C@@H](CO)NC(=O)c1cc(-c2ccc(Cl)cc2)nn(-c2cccc(Cl)c2)c1=O [Example 61, 2-(3-Chlorophenyl)-6-(4-chlorophenyl)-N-[(2S)-1-hydroxy-4-methylpentan-2-yl]-3-oxo-2,3-dihydropyridazine-4-carboxamide] | 5.14e-07 |
| O=C(NCC(O)C(F)(F)F)c1cc(-c2ccc(Cl)cc2)nn(-c2cccc(Cl)c2)c1=O (stereo not shown) [Example 62, 2-(3-Chlorophenyl)-6-(4-chlorophenyl)-3-oxo-N-(3,3,3-trifluoro-2-hydroxypropyl)-2,3-dihydropyridazine-4-carboxamide] | 1.5e-07 |
| CC(CO)NC(=O)c1cc(-c2ccc(Cl)cc2)nn(-c2cccc(Cl)c2)c1=O (stereo not shown) [Example 65, 2-(3-Chlorophenyl)-6-(4-chlorophenyl)-N-(1-hydroxypropan-2-yl)-3-oxo-2,3-dihydropyridazine-4-carboxamide] | 3e-07 |
| Cc1ccc(-c2cc(C(=O)N[C@H](CO)C(C)C)c(=O)n(-c3ccccc3)n2)cc1 [Example 71, N-[(2S)-1-hydroxy-3-methylbutan-2-yl]-6-(4-methylphenyl)-3-oxo-2-phenyl-2,3-dihydropyridazine-4-carboxamide] | 4.05e-08 |
| Cc1ccc(-c2cc(C(=O)NCCO)c(=O)n(-c3ccccc3)n2)cc1 [Example 74, N-(2-hydroxyethyl)-6-(4-methylphenyl)-3-oxo-2-phenyl-2,3-dihydropyridazine-4-carboxamide] | 2.1e-06 |
| Cc1ccc(-c2cc(C(=O)NC(CO)C(C)C)c(=O)n(-c3cccc(F)c3)n2)cc1C (stereo not shown) [Example 82, 6-(3,4-dimethylphenyl)-2-(3-fluorophenyl)-N-(1-hydroxy-3-methylbutan-2-yl)-3-oxo-2,3-dihydropyridazine-4-carboxamide] | 1.03e-07 |
| Cc1ccc(-c2cc(C(=O)N[C@@H](CO)C(C)C)c(=O)n(-c3cccc(F)c3)n2)cc1C [Example 84, 6-(3,4-dimethylphenyl)-2-(3-fluorophenyl)-N-[(2R)-1-hydroxy-3-methylbutan-2-yl]-3oxo-2,3-dihydropyridazine-4-carboxamide] | 3.66e-06 |
| CCC(CO)NC(=O)c1cc(-c2ccc(C)c(C)c2)nn(-c2cccc(F)c2)c1=O (stereo not shown) [Example 85, 6-(3,4-dimethylphenyl)-2-(3-fluorophenyl)-N-(1-hydroxybutan-2-yl)-3-oxo-2,3-dihydropyridazine-4-carboxamide] | 8.61e-08 |

Next, values leading:

| IC50 [M] | Compound |
| --- | --- |
| 1.77e-07 | O=C(NC(CO)C1CCCO1)c1cc(-c2ccc(Cl)cc2)nn(-c2cccc(F)c2)c1=O (single isomer, unassigned) [Example 317, 1,4-anhydro-5-({[6-(4-chlorophenyl)-2-(3-fluorophenyl)-3-oxo-2,3-dihydropyridazin-4-yl]carbonyl}amino)-2,3,5-trideoxyhexitol] |
| 5.34e-08 | O=C(NC(CO)C1CCCO1)c1cc(-c2ccc(Cl)cc2)nn(-c2cccc(F)c2)c1=O (single isomer, unassigned) [Example 318, 1,4-anhydro-5-({[6-(4-chlorophenyl)-2-(3-fluorophenyl)-3-oxo-2,3-dihydropyridazin-4-yl]carbonyl}amino)-2,3,5-trideoxyhexitol] |
| 2e-08 | O=C(NC(CO)C1CCCO1)c1cc(-c2ccc(C(F)(F)F)cc2)nn(-c2cccc(F)c2)c1=O (single isomer, unassigned) [Example 353, 1,4-anhydro-2,3,5-trideoxy-5-[({2-(3-fluorophenyl)-3-oxo-6-[4-(trifluoromethyl)phenyl]-2,3-dihydropyridazin-4-yl}carbonyl)amino]hexitol] |
| 8.39e-08 | CC(CO)NC(=O)c1cc(-c2ccc(Cl)cc2)nn(-c2cccc(F)c2)c1=O (stereo not shown) [Example 22, 6-(4-Chlorophenyl)-2-(3-fluorophenyl)-N-(1-hydroxypropan-2-yl)-3-oxo-2,3-dihydropyridazine-4-carboxamide] |
| 6.6e-08 | CC[C@@H](CO)NC(=O)c1cc(-c2ccc(Cl)cc2)nn(-c2cccc(Cl)c2)c1=O [Example 60, 2-(3-Chlorophenyl)-6-(4-chlorophenyl)-N-[(2S)-1-hydroxybutan-2-yl]-3-oxo-2,3-dihydropyridazine-4-carboxamide] |
| 3.89e-07 | CC(C)C(O)CNC(=O)c1cc(-c2ccc(Cl)cc2)nn(-c2cccc(Cl)c2)c1=O (stereo not shown) [Example 67, 2-(3-Chlorophenyl)-6-(4-chlorophenyl)-N-(2-hydroxy-3-methylbutyl)-3-oxo-2,3-dihydropyridazine-4-carboxamide] |
| 2.11e-06 | Cc1ccc(-c2cc(C(=O)N[C@@H](CO)C(C)C)c(=O)n(-c3ccccc3)n2)cc1 [Example 72, N-[(2R)-1-hydroxy-3-methylbutan-2-yl]-6-(4-methylphenyl)-3-oxo-2-phenyl-2,3-dihydropyridazine-4-carboxamide] |
| 3.07e-07 | Cc1ccc(-c2cc(C(=O)NC(C)CO)c(=O)n(-c3ccccc3)n2)cc1 (stereo not shown) [Example 73, N-(1-hydroxypropan-2-yl)-6-(4-methylphenyl)-3-oxo-2-phenyl-2,3-dihydropyridazine-4-carboxamide] |
| 2.82e-07 | CC(CO)NC(=O)c1cc(-c2ccc(Cl)cc2)nn(-c2ccccc2)c1=O (stereo not shown) [Example 79, 6-(4-chlorophenyl)-N-(1-hydroxypropan-2-yl)-3-oxo-2-phenyl-2,3-dihydropyridazine-4-carboxamide] |
| 1.12e-06 | C[C@H](CO)NC(=O)c1cc(-c2ccc(Cl)cc2)nn(-c2ccccc2)c1=O [Example 81, 6-(4-chlorophenyl)-N-[(2R)-1-hydroxypropan-2-yl]-3-oxo-2-phenyl-2,3-dihydropyridazine-4-carboxamide] |
| 7.26e-07 | CC[C@H](CO)NC(=O)c1cc(-c2ccc(C)c(C)c2)nn(-c2cccc(F)c2)c1=O [Example 87, 6-(3,4-dimethylphenyl)-2-(3-fluorophenyl)-N-[(2R)-1-hydroxybutan-2-yl]-3-oxo-2,3-dihydropyridazine-4-carboxamide] |
| 1.46e-07 | Cc1ccc(-c2cc(C(=O)NC(C)CO)c(=O)n(-c3cccc(F)c3)n2)cc1C (stereo not shown) [Example 88, 6-(3,4-dimethylphenyl)-2-(3-fluorophenyl)-N-(1-hydroxypropan-2-yl)-3-oxo-2,3-dihydropyridazine-4-carboxamide] |

Reference: patent publication US11040035B2, “3-oxo-2,6-diphenyl-2,3-dihydropyridazine-4-carboxamides” (BAYER PHARMA AKTIENGESELLSCHAFT, priority 2016, dated 2021)
